# Tests used:
# Assay type in all cases: in vivo
# day-old broiler chicks = test: Determination of dose range: maximum tolerated oral dose in day-old broiler chicks
# Protocol: (§1) Day-old chicks were orally administered Iksin in DMSO at 100 μg/g, 125 μg/g, 150 μg/g and 200 μg/g body weight and in Distilled Water (DW)/5% Tween-20 at 100 μg/g, 200 μg/g, 400 μg/g and 500 μg/g body weight.
# The maximum tolerated oral dose of Iksin for day-old broiler chicks was 200 μg/g Iksin/DMSO and ≧500 μg/g in DW/T20.
# [1] = Plasma/blood levels of Iksin in chicks after a single oral dose; details: for peak levels (blood/plasma): observed at 48 h (FIG. 1)
# Protocol: FIG. 1 is a graph showing plasma levels of Iksin in chicks after treatment with Iksin at 100 μg/g in DMSO and at 400 μg/g in distilled water/Tween20; and
# as §1
# chicks = test: Effect on chick growth: weight gain after a single treatment
# Protocol: FIG. 2 is a graph showing the average percentage weight increase in chicks after single dosing with Iksin at 12 μg/g in DMSO, 100 μg/g in DMSO, 200 μg/g in distilled water/Tween20 and 400 μg/g in distilled water/tween20 compared to untreated chicks.
# as §1
# Treatment with Iksin 12 μg/g DMSO, 200 and 400 μg/g DW/T20 gave a mean weight gain of 17%.
compound,measurement,setting,value
"C/C(=C\c1ccc2c(c1)OCO2)[N+](=O)[O-] [Iksin, 3,4-methylenedioxy-β-methyl-β-nitrostyrene]",maximum tolerated oral dose,day-old broiler chicks; Iksin in DMSO,200 µg/g
same,maximum tolerated oral dose,day-old broiler chicks; Iksin in DW/T20 (distilled water/5% Tween-20),≥ 500 µg/g
same,Iksin blood levels,[1]; single oral dose 12 μg/g DMSO,below the limits of detection
same,peak levels (blood/plasma),[1]; single oral dose 100 μg/g DMSO,850 µg/g
same,Iksin blood levels,[1]; single oral dose 200 μg/g DW,below the limits of detection
same,peak levels (blood/plasma),[1]; single oral dose 400 μg/g DW,850 µg/g
same,absorption from a single oral dosing,[1]; single oral dosing,Very little Iksin was absorbed
same,weight gain in chicks,"chicks; all doses and formulations, 4 days after a single treatment (FIG. 2)",increased weight gain
same,mean weight gain,"chicks; chicks, Iksin 12 μg/g DMSO, 200 and 400 μg/g DW/T20 (mean of these groups), 4 days after a single treatment",17%
same,increase in weight gain over the group of control chicks,"chicks; chicks, Iksin 100 μg/g DMSO, 4 days after a single treatment",32%

# Reference: patent US20060100258A1, “Growth promotion method” (priority 2003, published 2006)
